Experimental data as given in PubChem BioAssay (NCI).
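Step 1: Grow cells in 96-well plates. Step 2: Expose to compound for 48 hours at 5 concentrations. Step 3: Interpolate endpoints linearly; if unreached, use highest concentration. Definition used: TGI = concentration required for complete inhibition of growth.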

What was measured:
Assay in all cases: NCI anticancer screen, dose series, 48 h
SF-539 CNS = test system: SF-539 CNS
CAKI-1 renal = test system: CAKI-1 renal
SK-MEL-28 melanoma = test system: SK-MEL-28 melanoma
SK-MEL-5 melanoma = test system: SK-MEL-5 melanoma
MDA-N = test system: MDA-N
HCT-116 colon = test system: HCT-116 colon
NCI-H226 lung = test system: NCI-H226 lung
RPMI-8226 leukemia = test system: RPMI-8226 leukemia
SNB-19 CNS = test system: SNB-19 CNS
COLO 205 colon = test system: COLO 205 colon
HOP-92 NSCLC = test system: HOP-92 NSCLC
BT-549 breast = test system: BT-549 breast
M14 melanoma = test system: M14 melanoma
SNB-75 CNS = test system: SNB-75 CNS
NCI-H522 lung = test system: NCI-H522 lung
A498 renal = test system: A498 renal
OVCAR-4 ovarian = test system: OVCAR-4 ovarian
OVCAR-5 ovarian = test system: OVCAR-5 ovarian
UO-31 renal = test system: UO-31 renal
IGROV1 ovarian = test system: IGROV1 ovarian
DU-145 prostate = test system: DU-145 prostate
MDA-MB-435 = test system: MDA-MB-435
HS 578T breast = test system: HS 578T breast
OVCAR-8 ovarian = test system: OVCAR-8 ovarian
HCC-2998 colon = test system: HCC-2998 colon
SF-268 CNS = test system: SF-268 CNS
SF-295 CNS = test system: SF-295 CNS
MALME-3M melanoma = test system: MALME-3M melanoma
MDA-MB-231 breast = test system: MDA-MB-231 breast
ACHN renal = test system: ACHN renal
786-0 renal = test system: 786-0 renal
TK-10 renal = test system: TK-10 renal
UACC-62 melanoma = test system: UACC-62 melanoma
A549 NSCLC = test system: A549 NSCLC
SW-620 colon = test system: SW-620 colon
HOP-62 NSCLC = test system: HOP-62 NSCLC
T-47D breast = test system: T-47D breast
LOX IMVI melanoma = test system: LOX IMVI melanoma
NCI-H23 lung = test system: NCI-H23 lung
HCT-15 colon = test system: HCT-15 colon
OVCAR-3 ovarian = test system: OVCAR-3 ovarian
MOLT-4 leukemia = test system: MOLT-4 leukemia
MCF7 breast = test system: MCF7 breast
SK-MEL-2 melanoma = test system: SK-MEL-2 melanoma
UACC-257 melanoma = test system: UACC-257 melanoma
CCRF-CEM leukemia = test system: CCRF-CEM leukemia
EKVX NSCLC = test system: EKVX NSCLC
PC-3 prostate = test system: PC-3 prostate
SK-OV-3 ovarian = test system: SK-OV-3 ovarian
K-562 leukemia = test system: K-562 leukemia
NCI/ADR-RES ovarian = test system: NCI/ADR-RES ovarian
HL-60(TB) leukemia = test system: HL-60(TB) leukemia
RXF 393 renal = test system: RXF 393 renal
U251 CNS = test system: U251 CNS
HT29 colon = test system: HT29 colon
KM12 colon = test system: KM12 colon
SN12C renal = test system: SN12C renal
NCI-H460 lung = test system: NCI-H460 lung
SR leukemia = test system: SR leukemia

**Q.** Which results are given for `CN(C)C(C1=C(O)C(c2ccccc2)N(c2ccccc2)C1=O)N1CCOCC1` (stereo not given)?
**A.** TGI (SF-539 CNS): > 10000 nM; TGI (CAKI-1 renal): > 10000 nM; TGI (SK-MEL-28 melanoma): > 10000 nM; TGI (SK-MEL-5 melanoma): > 10000 nM; TGI (MDA-N): > 10000 nM; TGI (HCT-116 colon): > 10000 nM; TGI (NCI-H226 lung): > 10000 nM; TGI (RPMI-8226 leukemia): > 10000 nM; TGI (SNB-19 CNS): > 10000 nM; TGI (COLO 205 colon): > 10000 nM; TGI (HOP-92 NSCLC): > 10000 nM; TGI (BT-549 breast): > 10000 nM; TGI (M14 melanoma): > 10000 nM; TGI (SNB-75 CNS): > 10000 nM; TGI (NCI-H522 lung): > 10000 nM; TGI (A498 renal): > 10000 nM; TGI (OVCAR-4 ovarian): > 10000 nM; TGI (OVCAR-5 ovarian): > 10000 nM; TGI (UO-31 renal): > 10000 nM; TGI (IGROV1 ovarian): > 10000 nM; TGI (DU-145 prostate): > 10000 nM; TGI (MDA-MB-435): > 10000 nM; TGI (HS 578T breast): > 10000 nM; TGI (OVCAR-8 ovarian): > 10000 nM; TGI (HCC-2998 colon): > 10000 nM; TGI (SF-268 CNS): > 10000 nM; TGI (SF-295 CNS): > 10000 nM; TGI (MALME-3M melanoma): > 10000 nM; TGI (MDA-MB-231 breast): > 10000 nM; TGI (ACHN renal): > 10000 nM; TGI (786-0 renal): > 10000 nM; TGI (TK-10 renal): > 10000 nM; TGI (UACC-62 melanoma): > 10000 nM; TGI (A549 NSCLC): > 10000 nM; TGI (SW-620 colon): > 10000 nM; TGI (HOP-62 NSCLC): > 10000 nM; TGI (T-47D breast): > 10000 nM; TGI (LOX IMVI melanoma): > 10000 nM; TGI (NCI-H23 lung): > 10000 nM; TGI (HCT-15 colon): > 10000 nM; TGI (OVCAR-3 ovarian): > 10000 nM; TGI (MOLT-4 leukemia): > 10000 nM; TGI (MCF7 breast): > 10000 nM; TGI (SK-MEL-2 melanoma): > 10000 nM; TGI (UACC-257 melanoma): > 10000 nM; TGI (CCRF-CEM leukemia): > 10000 nM; TGI (EKVX NSCLC): > 10000 nM; TGI (PC-3 prostate): > 10000 nM; TGI (SK-OV-3 ovarian): > 10000 nM; TGI (K-562 leukemia): > 10000 nM; TGI (NCI/ADR-RES ovarian): > 10000 nM; TGI (HL-60(TB) leukemia): > 10000 nM; TGI (RXF 393 renal): > 10000 nM; TGI (U251 CNS): > 10000 nM; TGI (HT29 colon): > 10000 nM; TGI (KM12 colon): > 10000 nM; TGI (SN12C renal): > 10000 nM; TGI (NCI-H460 lung): > 10000 nM

**Q.** For `CC(C)[N+]([O-])(CCCNc1c2ccccc2nc2cccc([N+](=O)[O-])c12)C(C)C`, which TGI (SF-539 CNS) is on record?
**A.** 240 nM

**Q.** What about the TGI (CAKI-1 renal) of the same molecule?
**A.** 6200 nM

**Q.** And the TGI (SK-MEL-28 melanoma)?
**A.** 175 nM

**Q.** And the TGI (SK-MEL-5 melanoma)?
**A.** 62.8 nM

**Q.** What about the TGI (MDA-N) of the same molecule?
**A.** 137 nM

**Q.** What about the TGI (HCT-116 colon) of the same molecule?
**A.** 3940 nM

**Q.** And the TGI (NCI-H226 lung)?
**A.** 2560 nM

**Q.** And the TGI (RPMI-8226 leukemia)?
**A.** 87.5 nM

**Q.** What about the TGI (SNB-19 CNS) of the same molecule?
**A.** 5170 nM

**Q.** What about the TGI (COLO 205 colon) of the same molecule?
**A.** 57.7 nM

**Q.** What about the TGI (HOP-92 NSCLC) of the same molecule?
**A.** 196 nM

**Q.** What about the TGI (BT-549 breast) of the same molecule?
**A.** 221 nM

**Q.** What about the TGI (M14 melanoma) of the same molecule?
**A.** 305 nM

**Q.** What about the TGI (SNB-75 CNS) of the same molecule?
**A.** 629 nM

**Q.** And the TGI (NCI-H522 lung)?
**A.** 147 nM

**Q.** What about the TGI (A498 renal) of the same molecule?
**A.** 289 nM

**Q.** What about the TGI (OVCAR-4 ovarian) of the same molecule?
**A.** 433 nM

**Q.** And the TGI (OVCAR-5 ovarian)?
**A.** 1310 nM

**Q.** And the TGI (UO-31 renal)?
**A.** 1350 nM

**Q.** And the TGI (IGROV1 ovarian)?
**A.** 488 nM

**Q.** And the TGI (DU-145 prostate)?
**A.** 133 nM

**Q.** What about the TGI (MDA-MB-435) of the same molecule?
**A.** 75.8 nM

**Q.** And the TGI (HS 578T breast)?
**A.** 402 nM

**Q.** And the TGI (OVCAR-8 ovarian)?
**A.** 628 nM

**Q.** And the TGI (HCC-2998 colon)?
**A.** 22.7 nM

**Q.** What about the TGI (SF-268 CNS) of the same molecule?
**A.** 3140 nM

**Q.** And the TGI (SF-295 CNS)?
**A.** 904 nM

**Q.** And the TGI (MALME-3M melanoma)?
**A.** 106 nM

**Q.** And the TGI (MDA-MB-231 breast)?
**A.** 441 nM

**Q.** And the TGI (ACHN renal)?
**A.** 440 nM

**Q.** What about the TGI (786-0 renal) of the same molecule?
**A.** 10100 nM

**Q.** What about the TGI (TK-10 renal) of the same molecule?
**A.** 1400 nM

**Q.** What about the TGI (UACC-62 melanoma) of the same molecule?
**A.** 356 nM

**Q.** And the TGI (A549 NSCLC)?
**A.** 2530 nM

**Q.** And the TGI (SW-620 colon)?
**A.** 4900 nM

**Q.** And the TGI (HOP-62 NSCLC)?
**A.** 1770 nM

**Q.** What about the TGI (LOX IMVI melanoma) of the same molecule?
**A.** 427 nM

**Q.** What about the TGI (NCI-H23 lung) of the same molecule?
**A.** 168 nM

**Q.** What about the TGI (HCT-15 colon) of the same molecule?
**A.** 1580 nM

**Q.** What about the TGI (OVCAR-3 ovarian) of the same molecule?
**A.** 1070 nM

**Q.** What about the TGI (MCF7 breast) of the same molecule?
**A.** 14900 nM

**Q.** And the TGI (SK-MEL-2 melanoma)?
**A.** 1240 nM

**Q.** What about the TGI (UACC-257 melanoma) of the same molecule?
**A.** 333 nM

**Q.** And the TGI (CCRF-CEM leukemia)?
**A.** 1980 nM

**Q.** And the TGI (EKVX NSCLC)?
**A.** 528 nM

**Q.** And the TGI (PC-3 prostate)?
**A.** 11500 nM

**Q.** What about the TGI (SK-OV-3 ovarian) of the same molecule?
**A.** 2080 nM

**Q.** What about the TGI (K-562 leukemia) of the same molecule?
**A.** > 100000 nM

**Q.** What about the TGI (NCI/ADR-RES ovarian) of the same molecule?
**A.** 8760 nM

**Q.** What about the TGI (SR leukemia) of the same molecule?
**A.** 1150 nM

**Q.** What about the TGI (HL-60(TB) leukemia) of the same molecule?
**A.** 2690 nM

**Q.** And the TGI (RXF 393 renal)?
**A.** 403 nM

**Q.** And the TGI (U251 CNS)?
**A.** 1190 nM

**Q.** What about the TGI (HT29 colon) of the same molecule?
**A.** 1930 nM

**Q.** And the TGI (KM12 colon)?
**A.** 2530 nM

**Q.** What about the TGI (SN12C renal) of the same molecule?
**A.** 862 nM

**Q.** And the TGI (NCI-H460 lung)?
**A.** 1780 nM
